One series addresses T1, PARP7 (Homo sapiens, UniProt Q7Z3E1).
T1 construct: purchased BPS Bioscience
T1 sequence (Q7Z3E1 1-657): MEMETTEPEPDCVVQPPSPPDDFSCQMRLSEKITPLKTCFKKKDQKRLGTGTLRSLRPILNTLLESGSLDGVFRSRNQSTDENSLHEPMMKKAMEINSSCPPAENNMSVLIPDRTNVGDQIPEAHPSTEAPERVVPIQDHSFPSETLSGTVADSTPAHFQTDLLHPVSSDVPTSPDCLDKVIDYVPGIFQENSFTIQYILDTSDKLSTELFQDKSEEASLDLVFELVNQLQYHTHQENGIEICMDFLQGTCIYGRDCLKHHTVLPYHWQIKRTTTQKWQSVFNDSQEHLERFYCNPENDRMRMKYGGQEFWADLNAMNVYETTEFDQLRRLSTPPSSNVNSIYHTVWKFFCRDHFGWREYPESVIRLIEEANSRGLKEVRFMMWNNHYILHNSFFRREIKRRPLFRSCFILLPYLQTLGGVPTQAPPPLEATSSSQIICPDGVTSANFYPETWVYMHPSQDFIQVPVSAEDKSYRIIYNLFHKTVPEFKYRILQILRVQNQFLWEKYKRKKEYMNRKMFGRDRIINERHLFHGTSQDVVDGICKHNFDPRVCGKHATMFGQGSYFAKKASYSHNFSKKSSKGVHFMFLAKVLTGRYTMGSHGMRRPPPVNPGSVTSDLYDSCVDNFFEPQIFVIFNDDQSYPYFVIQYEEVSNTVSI
The series is described as follows: Inhibitory activity of compounds on PARP7 enzyme (PARP7 Chemiluminescent Assay Kit). The class given is biochemical. The procedure:
Experimental materials: PARP7 Chemiluminescent Assay Kit, BPS Bioscience; DMSO, China National Pharmaceutical Group, Nivo, PerkinElmer.
(1) Preparation of Solutions and Buffers:
Preparation of 10×PBS: 720 mg of KH2PO4, 45 g of NaCl and 5.311 g of Na2HPO4·12H2O were weighed respectively and dissolved in 500 mL of deionized water, a system pH value was adjusted to 7.4, sterilization was performed at 121° C. for 30 min, and the system after cooling was placed at 4° C. for later use.
Preparation of 1×PBS: 10×PBS was diluted 10 times with deionized water, that is, 9 parts of deionized water was added to 1 part of 10×PBS for dilution.
Preparation of wash buffer: 1×PBS contained 0.05% Tween-20.
Preparation of 1×PARP buffer (prepared freshly before use): 10×PARP buffer was diluted 10 times with deionized water and placed on ice for later use.
(2) Preparation of Compound Working Solution Concentration:
According to test requirements, a compound to be tested is diluted with 100% DMSO to a desired concentration, and then diluted 10 times with 1×PARP buffer to prepare a 10× compound working solution.
a. 5× histone mixture was thawed on ice one day prior to the experiment;
b. preparation of 1× histone mixture: 1× histone mixture was prepared through the 5× histone mixture by using 1×PBS; and 25 μL of 1× histone mixture was taken from each well and transferred into a test well plate and incubated overnight at 4° C.;
c. 100 μL of Blocking buffer was taken from each well and added to the test well plate and incubated for 90 min at 25° C.;
d. after the incubation was completed, the liquid in the test well plate was spin-dried, and the test well plate was washed repeatedly for 3 times;
e. 2.5 μL of the compound working solution was taken from each well and added to the test well plate according to an experimental layout diagram; and 1×PARP buffer with a corresponding volume of 10% DMSO was added to positive control wells (Positive Control), and 1×PARP buffer of a corresponding volume was added to blank control wells (Blank);
f. after the enzyme was completely dissolved, an enzyme stock solution was diluted with 1×PARP buffer to 6 ng/μL;
g. 10 μL of enzyme solution was taken from each well and added to the test well plate, the blank control wells were added with the corresponding volume of 1×PARP buffer, and in which case, the enzyme amount was 60 ng per well. Note: this step needs to be performed on ice;
h. 12.5 μL of master mixture was added to each well of the test well plate (12.5 μL master mixture included 1.25 μL of 10×PARP buffer, 1.25 μL of Opti-PARP 10× Assay mixture and 10 μL of water); the test well plate was sealed and incubated at 25° C. for 60 min;
i. after the incubation was completed, the liquid in the test well plate was spin-dried, and the test well plate was washed repeatedly for 3 times;
j. Streptavidin-HRP in a kit was diluted 50 times with a Blocking buffer, 25 μL was taken from each well and added to the test well plate, and incubated at 25° C. for 30 min;
k. after the incubation was completed, the liquid in the test well plate was spin-dried, and the test well plate was washed repeatedly for 3 times;
l. ELISA ECL Substrate A and ELISA ECL Substrate B in the kit was mixed to obtain a mixed solution according to a ratio of 1:1, 50 μL of the mixed solution was added to each well of the test well plate, Nivo was used to perform Luminescence detection immediately, and a luminous value (RLU) was read; and
m. calculation of an enzyme rate: Enzyme Activity=(RLU(Sample)−RLU(Blank))/(RLU(Pos.Ctrl)−RLU(Blank))×100%; and enzyme inhibition rate=1−% Enzyme Activity, and specific results were shown in Table 1 below.

Series [1] in a line: Pharmacokinetic study in SD rats. The conditions noted are these: for AUC / Cmax / clearance / half-life: male, rat, supernatant of centrifuged blood. It is filed as in vivo. On the procedure: (§1) Experimental process: 12 male SD rats were selected, 6 of the rats were orally administrated (3 of them were administered with RBN-2397, and the remaining 3 were administered with I-A-1, at a dose of 10 mg/kg), 6 of the rats were administered intravenously (3 of them were administered with RBN-2397, and the remaining 3 were administered with I-A-1, at a dose of 1 mg/kg), blood samples were collected at 0 min, 2 min, 5 min, 10 min, 20 min, 30 min, 60 min, 2 h, 4 h, 6 h, and 8 h, respectively, and then centrifuged (at 3000 rpm for 5 min), a supernatant was collected and analyzed by LC-MS-MS, and results were analyzed by using WinNonlin Software.

The nature of series [2]: Pharmacokinetic study in ICR mice. It is filed as in vivo. The conditions noted are these: for AUC / Cmax / clearance / half-life: male, mouse, supernatant of centrifuged blood. On the procedure:
as §1, with “ICR mice” for “SD rats”

The subject of the next series is CT26 cells. The series is described as follows: In vivo pharmacodynamic study, CT26 subcutaneous tumors in BALB/c mice. The source says:
BALB/c mice were subcutaneously inoculated with CT26 cells in the right abdominal skin to develop tumors. Four days after tumor inoculation, 24 mice having a tumor size ranging from 55-75 mm^3 (with an average tumor size of 63 mm^3) were selected and randomly divided into 4 groups based on their tumor volumes, with 6 mice in each group. Drug administration was started on the day following random grouping (the day of random grouping was identified as Day 0), a carrier (0.5% of methyl cellulose+0.2% of Tween 80), Compound RBN-2397 (500 mg/kg, once a day, intragastric administration for 14 consecutive days), Compound I-A-1 (100 mg/kg, once a day, intragastric administration for 14 consecutive days), Compound I-A-1 (50 mg/kg, twice a day, intragastric administration for 14 consecutive days) were administered respectively, and the tumor size was measured three times per week during an administration period.

The test system of the next series is NCI-H1373 cells. As to conditions: NCI-H1373 xenograft; dose of >30 mg/kg orally once a day; cited from earlier work.
The conditions of series [3]: in words, background; cited from earlier work.

SMILES strings stand for the structures. Read-outs that look alike come from different tables or passages of the source. A value given as a limit tells only on which side of the number the result lay.

As usually defined, the AUC is the area under the concentration-time curve, a measure of exposure. Read a high AUC as high exposure. One may read the Cmax as the highest concentration seen after dosing. In general, clearance refers to the volume of plasma or blood freed of the substance per unit of time. A lower clearance goes with inefficient removal. Broadly, the half-life is the time needed for the level to fall by half in the phase considered.

Regarding `C[C@@H](CN1CC(C(=O)N2CCN(c3ncc(C(F)(F)F)cn3)CC2)C1)Nc1cn[nH]c(=O)c1C(F)(F)F` [I-A-1, (S)-4-(trifluoromethyl)-5-((1-(3-(4-(5-(trifluoromethyl)pyrimidin-2-yl)piperazine-1-carbonyl)azetidin-1-yl)propan-2-yl)amino)pyridazin-3(2H)-one], the IC50 on PARP7 (chemiluminescence, symbols defined as IC50 classes, read-out: 100 nM Inhibition Rate) was less than 100 nM; at PARP7 (summary of Table 1, read-out: enzyme inhibition IC50 values), less than 100 nM. In series [1] (PO 10 mg/kg), this compound came in with a CL of 62.9522 mL/min/kg. The F worked out at 46.8% in series [1] (PO 10 mg/kg) and 95.80% in series [2] (PO 10 mg/kg, 10 mg/kg). For the same compound, the pharmacokinetic properties result in series [1] (in words) and in series [2] (in words) was “good pharmacokinetic properties” in each case. In addition, the AUC in series [1] (IV 1 mg/kg) turned out to be 548 ng·h/mL; in series [1] (PO 10 mg/kg), 2560 ng·h/mL; in series [2] (IV 1 mg/kg), 591 ng·h/mL; in series [2] (PO 10 mg/kg) it was 5660 ng·h/mL. In addition, the Cmax in series [1] (IV 1 mg/kg) came out at 333 ng/mL; in series [1] (PO 10 mg/kg) it was 564 ng/mL; in series [2] (IV 1 mg/kg), 419 ng/mL; in series [2] (PO 10 mg/kg), 2300 ng/mL. The clearance in series [1] (IV 1 mg/kg) is 30.4 mL/min/kg; in series [2] (IV 1 mg/kg) it was 29 mL/min/kg. For the same compound, the half-life in series [1] (IV 1 mg/kg) was 1.72 h; in series [1] (PO 10 mg/kg), 2.57 h; in series [2] (IV 1 mg/kg), 1.44 h; in series [2] (PO 10 mg/kg), 1.74 h. The anti-tumor activity entry with CT26 cells (100 mg/kg once a day or 50 mg/kg twice a day, intragastric, 14 days, FIG. 2) is reported as “significant anti-tumor activity”. For the same compound, in the series on CT26 cells (I-A-1 100 mg/kg/day vs RBN-2397 500 mg/kg once a day), the “anti-tumor effect compared with the positive drug RBN-2397” value is recorded as “better anti-tumor effect at a lower dose”.
With `C[C@@H](COCCC(=O)N1CCN(c2ncc(C(F)(F)F)cn2)CC1)Nc1cn[nH]c(=O)c1C(F)(F)F` [RBN-2397, reference compound], in series [1] (PO 10 mg/kg), the CL came out at 381.342 mL/min/kg, the F turned out to be 12.4%, the AUC worked out at 415 ng·h/mL and the peak level (Cmax) was 295 ng/mL. The half-life in series [1] (PO 10 mg/kg) is 0.75 h. In series [1] (IV 1 mg/kg), this compound had an AUC of 333 ng·h/mL, a Cmax of 836 ng/mL, a clearance of 50.6 mL/min/kg and a half-life of 0.28 h. Also, in series [2] (PO 10 mg/kg), the F is 25.67%, the AUC came to 656 ng·h/mL, the Cmax came to 1310 ng/mL and the half-life is 0.9 h. In series [2] (IV 1 mg/kg), this compound gave an AUC of 256 ng·h/mL, a Cmax of 757 ng/mL, a clearance of 67 mL/min/kg and a half-life of 0.15 h. Further, in the series with NCI-H1373 cells, the anti-tumor effects entry was “significant anti-tumor effects”. For the same compound, in series [3], the “drug exposure and oral bioavailability in vivo” value is given as “low”; the “in vivo clearance rate” value is reported as “high”.

The values above are taken from patent US20250346579A1, “PYRIDAZINONE COMPOUND AND PREPARATION METHOD THEREFOR, PHARMACEUTICAL COMPOSITION THEREOF, AND APPLICATION THEREOF” (CHINA PHARMACEUTICAL UNIVERSITY, priority 2021, published 2025).
